# According to ChEMBL document CHEMBL5252611, “2- and 3-Fluoro-3-deaza-1',6'-isoneplanocin: Synthesis and antiviral properties (including Ebola and Marburg)” (Bioorg Med Chem Lett, 2023):
# The source made the active and inactive calls. The rule behind the calls is not given here.
# Assays:
# Punta Toro virus = assay: Antiviral activity against Punta Toro virus Adames infected in African green monkey Vero 76 cells; type: functional, organism-based
# [1] = tested on: Middle East respiratory syndrome-related coronavirus; assay: Antiviral activity against Middle East respiratory syndrome-related coronavirus EMC infected in African green monkey Vero 76 cells; type: functional, organism-based
# Lassa virus = assay: Antiviral activity against Lassa virus Josiah infected in African green monkey Vero cells; type: functional, organism-based; conditions: Mammarenavirus lassaense
# Hepatitis B virus = assay: Antiviral activity against HBV ayw1 infected in human HepG2.2.15 cells; type: functional, organism-based; conditions: ayw1, HepG2.2.15
# [2] = Cytotoxicity against human HepG2.2.15 cells; type: toxicity, cell-based, HepG2 2.2.15
# [3] = Selectivity index, ratio of CC50 for cytotoxicity against human HepG2.2.15 cells to EC50 for antiviral activity against HBV ayw1 infected in human HepG2.2.15 cells; type: toxicity, cell-based; conditions: read-out: Ratio CC50/EC50
# Measles morbillivirus [4] = assay: Antiviral activity against Measles virus CC infected in African green monkey Vero 76 cells by visual analysis; type: functional, organism-based
# [5] = Cytotoxicity against African green monkey Vero 76 cells infected with Measles virus CC by visual analysis; type: toxicity, cell-based; conditions: chlorocebus sabaeus
# [6] = Selectivity index, ratio of CC50 for cytotoxicity against African green monkey Vero 76 cells infected with Measles virus CC by visual analysis to EC50 for antiviral activity against Measles virus CC infected in African green monkey Vero 76 cells by visual analysis; type: toxicity, cell-based; conditions: read-out: Ratio CC50/EC50
# Measles morbillivirus [7] = assay: Antiviral activity against Measles virus CC infected in African green monkey Vero 76 cells by neutral red dye based analysis; type: functional, organism-based
# [8] = Cytotoxicity against African green monkey Vero 76 cells infected with Measles virus CC by neutral red dye based analysis; type: toxicity, cell-based; conditions: chlorocebus sabaeus
# [9] = Selectivity index, ratio of CC50 for cytotoxicity against African green monkey Vero 76 cells by neutral red dye based analysis to EC50 for antiviral activity against Measles virus CC infected in African green monkey Vero 76 cells by neutral red dye based analysis; type: toxicity, cell-based; conditions: read-out: Ratio CC50/EC50
# Rift Valley fever virus [10] = assay: Antiviral activity against Rift Valley fever virus MP-12 infected in African green monkey Vero 76 cells by visual analysis; type: functional, organism-based; conditions: MP-12, Vero 76
# [11] = Cytotoxicity against African green monkey Vero 76 cells infected with Rift Valley fever virus MP-12 by visual analysis; type: toxicity, cell-based; conditions: chlorocebus sabaeus
# [12] = (§1) Selectivity index, ratio of CC50 for cytotoxicity against African green monkey Vero 76 cells infected with Rift Valley fever virus MP-12 by visual analysis to EC50 for antiviral activity against Rift Valley fever virus MP-12 infected in African green monkey Vero 76 cells by visual analysis; type: toxicity, cell-based; conditions: read-out: Ratio CC50/EC50
# Rift Valley fever virus [13] = assay: Antiviral activity against Rift Valley fever virus MP-12 infected in African green monkey Vero 76 cells by neutral red dye based analysis; type: functional, organism-based; conditions: MP-12, Vero 76
# [14] = Cytotoxicity against African green monkey Vero 76 cells infected with Rift Valley fever virus MP-12 by neutral red dye based analysis; type: toxicity, cell-based; conditions: chlorocebus sabaeus
# [15] = as §1, with “neutral red dye based” for “visual”; type: toxicity, cell-based; conditions: read-out: Ratio CC50/EC50
# Tacaribe virus [16] = assay: Antiviral activity against Tacaribe virus TRVL11573 infected in African green monkey Vero cells by visual analysis; type: functional, organism-based; conditions: Mammarenavirus tacaribeense
# [17] = Cytotoxicity against African green monkey Vero cells infected with Tacaribe virus TRVL11573 by visual analysis; type: toxicity, cell-based; conditions: chlorocebus sabaeus
# [18] = (§2) Selectivity index, ratio of CC50 for cytotoxicity against African green monkey Vero cells infected with Tacaribe virus TRVL11573 by visual analysis to EC50 for antiviral activity against Tacaribe virus TRVL11573 infected in African green monkey Vero cells by visual analysis; type: toxicity, cell-based; conditions: read-out: Ratio CC50/EC50
# Tacaribe virus [19] = assay: Antiviral activity against Tacaribe virus TRVL11573 infected in African green monkey Vero cells by neutral red dye based analysis; type: functional, organism-based; conditions: Mammarenavirus tacaribeense
# [20] = Cytotoxicity against African green monkey Vero cells infected with Tacaribe virus TRVL11573 by neutral red dye based analysis; type: toxicity, cell-based; conditions: chlorocebus sabaeus
# [21] = as §2, with “neutral red dye based” for “visual”; type: toxicity, cell-based; conditions: read-out: Ratio CC50/EC50
# Pichinde virus [22] = assay: Antiviral activity against Pichinde virus AN 4763 infected in African green monkey Vero cells by visual analysis; type: functional, organism-based; conditions: AN 4763, Vero
# [23] = Cytotoxicity against African green monkey Vero cells infected in Pichinde virus AN 4763 by visual analysis; type: toxicity, cell-based; conditions: chlorocebus sabaeus, Vero cells infected with Pichinde virus AN 4763
# [24] = Selectivity index, ratio of CC50 for cytotoxicity against African green monkey Vero cells infected with Pichinde virus AN 4763 by visual analysis to EC50 for antiviral activity against Pichinde virus AN 4763 infected in African green monkey Vero cells by visual analysis; type: toxicity, cell-based; conditions: read-out: Ratio CC50/EC50
# Pichinde virus [25] = assay: Antiviral activity against Pichinde virus AN 4763 infected in African green monkey Vero cells by neutral red dye based analysis; type: functional, organism-based; conditions: AN 4763, Vero
# [26] = Cytotoxicity against African green monkey Vero cells infected in Pichinde virus AN 4763 by neutral red dye based analysis; type: toxicity, cell-based; conditions: chlorocebus sabaeus, Vero cells infected with Pichinde virus AN 4763
# [27] = Selectivity index, ratio of CC50 for cytotoxicity against African green monkey Vero cells infected with Pichinde virus AN 4763 by neutral red dye based analysis to EC50 for antiviral activity against Pichinde virus AN 4763 infected in African green monkey Vero cells by neutral red dye based analysis; type: toxicity, cell-based; conditions: read-out: Ratio CC50/EC50
# Chikungunya virus = assay: Antiviral activity against Chikungunya virus S27 infected in African green monkey Vero 76 cells; type: functional, organism-based
# dengue virus type 2 = assay: Antiviral activity against Dengue virus 2 New Guinea infected in human Huh-7 cells; type: functional, organism-based
# [28] = tested on: Japanese encephalitis virus; assay: Antiviral activity against Japanese encephalitis virus SA 14 infected in African green monkey Vero 76 cells; type: functional, organism-based
# Rift Valley fever virus [29] = assay: Antiviral activity against Rift Valley fever virus MP-12 infected in African green monkey Vero 76 cells; type: functional, organism-based
# Tacaribe virus [30] = assay: Antiviral activity against Tacaribe virus TRVL11573 infected in African green monkey Vero cells; type: functional, organism-based; conditions: Mammarenavirus tacaribeense
# Human betaherpesvirus 5 [31] = assay: Antiviral activity against Human betaherpesvirus 5 AD 169 infected in HFF cells; type: functional, organism-based
# [32] = tested on: Venezuelan equine encephalitis virus; assay: Antiviral activity against Venezuelan equine encephalitis virus TC-83 infected in African green monkey Vero 76 cells; type: functional, organism-based
# Rift Valley fever virus [33] = assay: Antiviral activity against Rift Valley fever virus; type: functional, organism-based
# Tacaribe virus [34] = assay: Antiviral activity against Tacaribe virus; type: functional, organism-based; conditions: Mammarenavirus tacaribeense
# Human betaherpesvirus 5 [35] = assay: Antiviral activity against Human betaherpesvirus 5; type: functional, organism-based
# Influenza A virus [36] = assay: Antiviral activity against influenza A virus H5N1; type: functional, organism-based
# Influenza B virus = assay: Antiviral activity against influenza B virus; type: functional, organism-based
# Influenza A virus [37] = assay: Antiviral activity against influenza A virus California/7/2009(H1N1) infected in MDCK cells; type: functional, organism-based
# [38] = Cytotoxicity against MDCK cells infected with influenza A virus California/7/2009(H1N1); type: toxicity, cell-based, Canis lupus familiaris; conditions: dog
# [39] = Selectivity index, ratio of CC50 for cytotoxicity against MDCK cells infected with influenza A virus California/7/2009(H1N1) to EC50 for antiviral activity against influenza A virus California/7/2009(H1N1) infected in MDCK cells; type: toxicity, cell-based; conditions: dog; read-out: Ratio CC50/EC50
# Norovirus = assay: Antiviral activity against Norovirus Genogroup 1 infected in human HG23 cells; type: functional, organism-based; conditions: Genogroup 1, HG23
# [40] = Cytotoxicity against human HG23 cells infected with Norovirus Genogroup 1; type: toxicity, cell-based
# [41] = Selectivity index, ratio of CC50 for cytotoxicity against human HG23 cells infected with Norovirus Genogroup 1 to EC50 for antiviral activity against Norovirus Genogroup 1 infected in human HG23 cells; type: toxicity, cell-based; conditions: read-out: Ratio CC50/EC50
# Zaire ebolavirus = assay: Antiviral activity against Zaire ebolavirus infected in African green monkey Vero cells; type: functional, organism-based
# [42] = Cytotoxicity against African green monkey Vero cells infected with Zaire ebolavirus; type: toxicity, cell-based; conditions: chlorocebus sabaeus
# [43] = Selectivity index, ratio of CC50 for cytotoxicity against African green monkey Vero cells infected with Zaire ebolavirus to EC50 for antiviral activity against Zaire ebolavirus infected in African green monkey Vero cells; type: toxicity, cell-based; conditions: read-out: Ratio CC50/EC50
# Marburgvirus = assay: Antiviral activity against Marburgvirus Angola infected in African green monkey Vero cells; type: functional, organism-based; conditions: Orthomarburgvirus
# [44] = Cytotoxicity against African green monkey Vero cells infected with Marburgvirus Angola; type: toxicity, cell-based; conditions: chlorocebus sabaeus
# [45] = Selectivity index, ratio of CC50 for cytotoxicity against African green monkey Vero cells infected with Marburgvirus Angola to EC50 for antiviral activity against Marburgvirus Angola infected in African green monkey Vero cells; type: toxicity, cell-based; conditions: read-out: Ratio CC50/EC50
# West Nile virus = assay: Antiviral activity against West Nile virus Kern 515 infected in African green monkey Vero 76 cells; type: functional, organism-based
# Yellow fever virus = assay: Antiviral activity against Yellow fever virus YFV 17D infected in human Huh-7 cells; type: functional, organism-based
# Enterovirus A71 = assay: Antiviral activity against Human enterovirus 71 Tainan/4643/98 infected in African green monkey Vero 76 cells; type: functional, organism-based
# Poliovirus 1 = assay: Antiviral activity against Human poliovirus 1 Mahoney infected in African green monkey Vero 76 cells; type: functional, organism-based
compound,measurement,setting,value
Nc1nc(F)cc2c1ncn2C1=C[C@H](CO)[C@@H](O)[C@H]1O,Activity,Punta Toro virus,inactive
same,Activity,[1],inactive
same,Activity,Lassa virus,inactive
same,EC50,Hepatitis B virus,0.43 µM
same,CC50,[2],48.2 µM
same,selectivity ratio,[3],113
same,EC50,Measles morbillivirus [4],0.36 µM
same,CC50,[5],114 µM
same,selectivity ratio,[6],320
same,EC50,Measles morbillivirus [7],0.39 µM
same,CC50,[8],36 µM
same,selectivity ratio,[9],91
same,EC50,Rift Valley fever virus [10],22.1 µM
same,CC50,[11],114 µM
same,selectivity ratio,[12],5.2
same,EC50,Rift Valley fever virus [13],33.2 µM
same,CC50,[14],132 µM
same,selectivity ratio,[15],4
same,EC50,Tacaribe virus [16],10.7 µM
same,CC50,[17],75 µM
same,selectivity ratio,[18],7
same,EC50,Tacaribe virus [19],8.6 µM
same,CC50,[20],50 µM
same,selectivity ratio,[21],5.8
same,EC50,Pichinde virus [22],3.32 µM
same,CC50,[23],46 µM
same,selectivity ratio,[24],14
same,EC50,Pichinde virus [25],2.57 µM
same,CC50,[26],50 µM
same,selectivity ratio,[27],19
same,Activity,Chikungunya virus,inactive
same,Activity,dengue virus type 2,inactive
same,Activity,[28],inactive
same,Activity,Rift Valley fever virus [29],inactive
same,Activity,Tacaribe virus [30],inactive
same,Activity,Human betaherpesvirus 5 [31],inactive
same,Activity,[32],inactive
Nc1ccn([C@@H]2CS[C@H](CO)O2)c(=O)n1 [LAMIVUDINE],EC50,Hepatitis B virus,0.02 µM
same,CC50,[2],> 2 µM
same,selectivity ratio,[3],> 99
Nc1nc(F)cc2c1ncn2[C@@H]1C=C(CO)[C@@H](O)[C@H]1O,Activity,Rift Valley fever virus [33],Active
same,Activity,Tacaribe virus [34],Active
same,Activity,Human betaherpesvirus 5 [35],Active
same,Activity,Influenza A virus [36],Active
same,Activity,Influenza B virus,Active
Nc1ncc(F)c2c1ncn2C1=C[C@H](CO)[C@@H](O)[C@H]1O,Activity,Punta Toro virus,inactive
same,EC50,Hepatitis B virus,1.28 µM
same,CC50,[2],> 357 µM
same,selectivity ratio,[3],> 2760
same,EC50,Influenza A virus [37],< 0.36 µM
same,CC50,[38],> 357 µM
same,selectivity ratio,[39],> 1000
same,EC50,Norovirus,0.64 µM
same,CC50,[40],> 357 µM
same,selectivity ratio,[41],> 2760
same,EC50,Zaire ebolavirus,< 0.1 µM
same,CC50,[42],> 100 µM
same,selectivity ratio,[43],> 538
same,EC50,Marburgvirus,< 0.1 µM
same,CC50,[44],> 100 µM
same,selectivity ratio,[45],> 1000
same,Activity,Chikungunya virus,inactive
same,Activity,dengue virus type 2,inactive
same,Activity,[28],Active
same,Activity,Human betaherpesvirus 5 [31],Active
same,Activity,[32],Active
same,Activity,West Nile virus,inactive
same,Activity,Yellow fever virus,inactive
same,Activity,Enterovirus A71,Active
same,Activity,Poliovirus 1,Active
